# Source: US6660837B1, “Modified protein derived from protein kinase N” (Kirin Beer Kabushiki Kaisha, priority 1995, dated 2003)
# Ends that are not written are not given here.
# Columns and labels:
# [1] = target: T1, GST-RhoGAP-stimulated GTPase activity of GST-RhoA (Homo sapiens, UniProt P61586); assay: GAP-stimulated GTPase activity of RhoA; type: biochemical; details: 50 nM GST-RhoGAP, 2 min 25° C., concentration-dependent
# T1 construct: made in house
# Protocol: The GAP-stimulated GTPase activity of RhoA was assayed by measuring the decreased radioactivity of [γ-^32p] GTP.GST-RhoA for 2 min at 25° C. in the presence of 50 nM of p122 Rho GAP fused to GST (GST-RhoGAP) and MBP-PKN with various concentrations in 100 μl of reaction mixture (20 mM Tris/HCl at pH 7.5, 10 mM EDTA, 1 mM DTT, 10 mM MgCl2, 1 mM GTP, 0.075% CHAPS, 0.25 mM L-α-dimyristoylphosphatidylcholine, 100 nM [γ-^32p] GTP bound form of GST-RhoA) (Homma, Y. & Emori, Y., EMBO J. 14, 286-291 (1995).
# [2] = target: T2, PKN (Rattus norvegicus, UniProt Q63433); assay: Inhibition of protein kinase activity of PKN with synthetic peptides (δPKC peptide substrate); type: biochemical; details: δPKC peptide at Km concentration (10 μM)
# T2 construct: The purified PKN (1 ng) from rat testis cytosol; from tissue; host or cells: rat testis (cytosol / soluble fraction)
# T2 sequence (Q63433 whole entry): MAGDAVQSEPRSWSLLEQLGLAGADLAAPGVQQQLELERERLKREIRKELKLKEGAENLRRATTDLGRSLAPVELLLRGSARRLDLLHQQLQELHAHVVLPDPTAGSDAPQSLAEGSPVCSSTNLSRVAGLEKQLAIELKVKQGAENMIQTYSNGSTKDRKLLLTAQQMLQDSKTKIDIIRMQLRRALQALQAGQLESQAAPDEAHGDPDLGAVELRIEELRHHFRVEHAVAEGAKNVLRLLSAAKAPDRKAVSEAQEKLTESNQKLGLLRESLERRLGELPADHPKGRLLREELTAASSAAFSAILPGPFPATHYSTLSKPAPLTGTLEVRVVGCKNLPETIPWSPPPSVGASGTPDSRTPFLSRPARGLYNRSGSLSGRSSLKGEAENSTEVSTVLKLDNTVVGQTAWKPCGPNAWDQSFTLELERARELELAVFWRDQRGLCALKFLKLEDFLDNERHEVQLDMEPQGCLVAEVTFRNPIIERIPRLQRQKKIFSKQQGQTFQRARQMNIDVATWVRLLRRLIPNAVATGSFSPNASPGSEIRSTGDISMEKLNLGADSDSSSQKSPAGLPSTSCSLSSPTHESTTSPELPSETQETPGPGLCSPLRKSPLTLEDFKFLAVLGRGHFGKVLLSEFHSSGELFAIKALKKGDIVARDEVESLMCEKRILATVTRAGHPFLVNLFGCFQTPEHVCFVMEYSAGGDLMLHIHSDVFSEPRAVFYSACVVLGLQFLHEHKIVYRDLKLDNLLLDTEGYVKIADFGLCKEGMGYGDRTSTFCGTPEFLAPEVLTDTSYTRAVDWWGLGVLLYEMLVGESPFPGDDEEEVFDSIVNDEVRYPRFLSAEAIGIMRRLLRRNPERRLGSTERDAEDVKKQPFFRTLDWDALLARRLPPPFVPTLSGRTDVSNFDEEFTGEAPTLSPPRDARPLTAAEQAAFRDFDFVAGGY
# Protocol: Kinase assay was carried out by the following method. The purified PKN (1 ng) from rat testis cytosol (Kitagawa, M. et al., Biochem. J. 310, 657-664. (1995)) was incubated for 5 min at 30° C. in a reaction mixture (final volume 25 μl) containing 50 mM Tris/HCl (pH 7.5), 8 mM Mgcl2, 20 μM ATP, 18.5 kBq of [γ-^32p] ATP, 40 μM arachidonic acid, phosphate acceptors and inhibitors as indicated in each experiment. Reactions were started by the addition of the enzyme source and terminated by spotting them onto Whatman P81 papers immersed in 75 mM phosphate. Incorporation of ^32P into phosphate acceptors was assessed by liquid scintillation counting. The protein kinase assay was carried out in the same manner as in Example 13, except that PKN was measured by using 6PKC peptide as a substrate and PKN (39-53) peptide (FIG. 22; black circle) or PKN (54-73) (FIG. 22: white circle) as an inhibitor. The concentration of δPKC peptide was Km concentration (10 μM). The protein kinase reaction was carried out in the presence of PKN (39-53) peptide or PKN (54-73) peptide with various concentrations.
# [3] = target: T3, purified PKN from rat testis (Rattus norvegicus, UniProt Q63433); assay: Phosphorylation of native NF by PKN; type: biochemical; details: 40 μM arachidonic acid
# T3 construct: The purified PKN (1 ng) from rat testis cytosol; from tissue; host or cells: rat testis (cytosol / soluble fraction)
# T3 sequence (Q63433 whole entry): as above
# Protocol: Native NFs were prepared from bovine spinal cords according to a method described in Hisanaga, S. & Hirokawa, N., J. Mol. Biol. 202, 297-305 (1988). Kinase assay was carried out according to the following method.
# Soluble cytosolic extract of spinal cord or purified NF proteins were boiled for 5 min to destroy endogenous protein kinase activity prior to their use as phosphate acceptors. The phosphorylation of NF preparations was carried out at 30° C. in an assay mixture containing 20 mM Tris/HCl at pH 7.5, 8 mM MgCl2, 100 μM ATP, 185 kBq of [γ-^32P]ATP, each subunit of NF, 20 ng/ml of purified PKN from rat testis, and with/without 40 μM arachidonic acid as indicated in each experiment. Reactions were terminated after various times by the addition of an equal volume of Laemli's sample buffer, and separation was performed on 7% SDS-PAGE. The gels were dried under vacuum and exposure to BAS1000 bio-imaging analyzer. Dephosphorylation of NF proteins was conducted with calf intestine alkaline phosphatase according to a method described in Carden, M. J. et al., J. Biol. Chem. 260, 9805-9817 (1985) and terminated after boiling for 5 min.
# [4] = target: T4, PKN purified from rat testis (Rattus norvegicus, UniProt Q63433); assay: Phosphorylation of α-actinin and actin-cytoskeletal proteins by PKN; type: biochemical; details: presence of 40 μM arachidonic acid
# T4 construct: The purified PKN (1 ng) from rat testis cytosol; from tissue; host or cells: rat testis (cytosol / soluble fraction)
# T4 sequence (Q63433 whole entry): as above
# Protocol: α-Actinin used in the experiment was purified from bovine aorta by the method of Feramisco et al. (Feramisco, J. R. & Burridge, K. J. Biol. Chem, 255, 1194-1199 (1980)). The phosphorylation by PKN was carried out at 30° C. in an assay mixture containing 20 mM Tris/HCl at pH 7.5, 4 mM MgCl2, 100 μM ATP, 185 kBq of [γ-^32p] ATP, substrates for phosphorylation (phosphate acceptors), 20 ng/ml of purified PKN from rat testis (Abe, M., et al., J. Biochem. Tokyo 107, 507-509 (1990)) in the presence or absence of 40 μM arachidonic acid as indicated in each experiment. Partial purified protein was boiled for 3 min to destroy endogenous kinase activity before use as the substrate for phosphorylation. After incubation for 5 min, the reaction was terminated by the addition of an equal volume of Laemmli's sample buffer (Laemmli, U. K. Nature […], 680-685 (1970)), and separated on SDS-PAGE. The gels were dried under vacuum and the phosphorylation was visualized and quantitated by an imaging analyzer (FUJI BAS1000). When the δPKC peptide (Mukai, H., et al. Biochem, Biophys. Res. Commun. 204, 348-356 (1994)) was used as the substrate for phosphorylation, reactions were terminated by spotting a mixture onto a Whatman P81 paper and submerging it in 75 mM phosphate, and followed by three times of 10 min washes. Incorporation of ^32p into the peptide was assessed by scintillation counting. […]
# [5] = test system: PKN autophosphorylation; assay: Kinase activity (autophosphorylation) of immunoprecipitated PKN-PK^−; type: biochemical, human; details: immunoprecipitate from PK^−/neo#5 cells
# Protocol: To examine whether PKN-PK^− has kinase activity, the kinase activity of PKN-PK^−, which has been immunoprecipitated by cells, was assayed. Specifically, the assay was carried out according to the following procedure.
# The experiment on immunoprecipitation was carried out at 0 to 4° C. The wild type NIH 3T3 cells and PK^−/neo#5 cells were lysed in 0.5 ml of buffer B (20 mM Tris/HCl at pH 7.5, 1% Nonidet P-40, 137 mM NaCl, 10% glycerol, 1 mM PMSF, 20 μg/ml aprotinin, 10 μg/ml leupeptin, 2.5 mM sodium fluoride, 0.25 mM sodium vanadate) for 1 hr. Insoluble materials were removed by centrifugation at 15,000×g for 10 min, and the supernatants were incubated with 1 μl of 10-fold diluted antiserum αN2 (Example 19) for 2 hr. After addition of 40 μl of 50% protein A Sepharose, the mixtures were further incubated for 1 hr. […] Each immunoprecipitate was incubated for 5 min at 30° C. with a 25-μl mixture (20 mM Tris/HCl at pH 7.5, 4 mM MgCl2, 40 μM ATP, 185 kBq of [γ-^32P] ATP without exogenous substrate. After addition of 5 μl of 6×Laemmli sample buffer (Laemmli, U. K. Nature 227, 680-685 (1970)) and boiling, a 20-μl aliquot of the mixture was subjected to 7% SDS-PAGE. The phosphorylation was visualized and quantitated by an imaging analyzer (Fuji BAS1000).
# [6] = test system: PK^−/neo#5 cells (NIH 3T3); assay: Heat shock induced nuclear translocation of PKN in PK^−/neo#5 cells; type: cell-based
# Protocol: (§1) Cells grown on coverslips were washed twice with phosphate-buffered saline (PBS), fixed for 1 hr at 4° C. in 4% paraformaldehyde, rinsed with PBS, and then blocked for 1 hr in PBS-T (PBS containing 0.05% Triton X-100) containing 5% normal goat serum. After washing with PBS, cells were incubated overnight at 4° C. with each antiserum which has been diluted with PBS to an antiserum concentration of about 10 μg/ml. Coverslips were then rinsed with PBS-T, and incubated with fluorescein isothiocyanate isomer I (FITC)-conjugated goat anti-rabbit IgG (Medical and biological laboratories, Co. Ltd.) for 60 min. Coverslips were rinsed with PBS-T followed by PBS, mounted with glycerol containing 0.1% 1, 4-diazabicyclo (2, 2, 2) octane (DABCO), and viewed on a Zeiss laser scanning microscope.
# At the outset, NIH 3T3 cells which stably overexpresses PKN-PK^− were constructed by the following procedure. A vector phPKNH4-PK^− was constructed by conversion of the lysine at the potential ATP-binding site to an arginine by in vitro site-directed mutagenesis (Mukai, H. & Ono, Y., Biochem. Biophys. Res. Commun. 199, 897-904 (1994)). […]
# [7] = target: T5, catalytic subunit of bovine heart PKA (Bos taurus, UniProt P00517); assay: Protein kinase assay with PKA (Kemptide substrate), specificity of inhibitor peptide; type: biochemical; details: Kemptide at Km concentration (16 μM), no arachidonic acid; read-out: IC50 against PKA
# T5 construct: The catalytic subunit of bovine heart PKA used in the experiment was purified; from tissue; host or cells: bovine heart
# Protocol: In order to judge the specificity of the activity of the inhibitor peptide, a protein kinase assay was carried out using PKA as an enzyme specimen. The catalytic subunit of bovine heart PKA used in the experiment was purified according to a method described in Bechtel, P. J. et al., J. Biol. Chem. 252, 2691-2697 (1977). The protein kinase activity of PKA was measured by using Kemptide (Kemp, B. E. et al., J. Biol. Chem. 252, 4888-4894 (1977) as a substrate under the same conditions as those used in Example 13, except that arachidonic acid was not used. The concentration of Kemptide was the Km concentration (16 μM), and measurement was made using PKN (39-53) peptide as an inhibitor (FIG. 22; white square). The kinase activity was determined in the same manner as in Example 13.
# [8] = target: T6, purified PKN (Rattus norvegicus, UniProt Q63433); assay: Kinetic assays of PKN inhibition by PKN (39-53) peptide; type: biochemical
# T6 construct: The purified PKN (1 ng) from rat testis cytosol; from tissue; host or cells: rat testis (cytosol / soluble fraction)
# T6 sequence (Q63433 whole entry): as above
# Protocol: In order to confirm the function of PKN (39-53) as a pseudosubstrate for PKN, kinetic assays were performed with purified PKN, a fixed ATP concentration of 100 μM, and various concentrations of δPKC peptide (10-80 μM). The protein kinase reaction of PKN was performed in the same manner as in Examples 13 and 14. The results, performed in the presence of 40-80 μM PKN (39-53) peptide, are shown in double-reciprocal plots (FIG. 23 (A)). The inhibition was competitive-noncompetitive and gave a linear secondary plot of Km/Vmax (a concentration required to give a half-maximal velocity/maximal velocity) versus inhibitor peptide concentrations (FIG. 23 (B)).
# [9] = test system: Rat-1 cells; assay: Subcellular distribution of PKN after sodium arsenite (immunofluorescence); type: cell-based; details: 50 μM, 37° C. for 2 hr
# Protocol: as §1
# An experiment was made in order to examine whether the subcellular distribution of PKN is influenced also by chemical shock. It is known that toxic compounds and toxic heavy metals also induce heat shock proteins and the stress responses in experimental systems (Maytin, E. V. & Young, D. A., J. Biol. Chem. 258, 12718-12722 (1983)). It is also known that cellular response similar to the stress induced by the heat shock is created also by treatment with sodium arsenite (Welch, W. J. & Suhan, J. P., J. Cell Biol. 103, 2035-2052 (1986)). […]
# T1 sequence (P61586 whole entry): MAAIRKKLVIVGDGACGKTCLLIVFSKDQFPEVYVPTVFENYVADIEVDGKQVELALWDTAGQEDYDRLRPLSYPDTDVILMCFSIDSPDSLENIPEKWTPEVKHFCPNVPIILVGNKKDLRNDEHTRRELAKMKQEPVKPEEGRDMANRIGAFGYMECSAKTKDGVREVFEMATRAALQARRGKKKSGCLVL
compound,measurement,setting,value
MBP-PKN: N-terminal region of PKN (amino acid sequence 7-155 in SEQ ID NO: 1) expressed as MBP fusion protein,effect on GST-RhoGAP-stimulated GTPase activity of GST-RhoA,[1],inhibited
EGAENLRRATTDLGRSLGPV [PKN (54-73) peptide],inhibitory activity against PKN,[2],little or no inhibitory activity
CCCCC/C=C\C/C=C\C/C=C\C/C=C\CCCC(=O)O [arachidonic acid],"initial velocity of phosphorylation of each NF subunit by PKN, presence versus absence",[3],5-10 times
same,stimulation of phosphorylation of G-actin by PKN,[4],up to 2 fold
same,stimulation of phosphorylation of caldesmon by PKN,[4],at least 6 fold
"PKN-PK^−: single point mutation of human PKN in the kinase domain (K644R), protein kinase-negative mutant",enzyme (kinase) activity of the mutant,[5],inactivated
same,nuclear translocation of the mutant protein on heat shock,[6]; 42° C. or 44° C. for 90 min,does not translocate to the nucleus
same,effect of overexpression on translocation of endogenous PKN from cytoplasm to nucleus,[6]; heat shock,inhibits the translocation
RERLRREIRKELKLK [PKN (39-53) peptide],IC50,[7],≥ 1000 µM
same,type of inhibition versus δPKC peptide substrate,[8]; 100 μM ATP,competitive-noncompetitive
same,type of inhibition with varying ATP concentration,[8]; data not shown,uncompetitive
O=[As]O [sodium arsenite],effect on subcellular distribution of PKN,[9],translocation of PKN to the nucleus
